In US11396496B2, “1,4-substituted isoquinoline inhibitors of KEAP1/NRF2 protein-protein interaction” (THE BOARD OF TRUSTEES OF THE UNIVERSITY OF ILLINOIS, priority 2018, dated 2022):

What was measured:
[1] = Log D7.4 (1-octanol / HEPES buffer pH 7.4); type: physicochemical; settings: HEPES buffer pH 7.4 / 1-octanol, mean of triplicate; for logD at 1 h: 1-octanol / HEPES buffer
Protocol: This solution was diluted to nine known concentration solutions (1200, 800, 400, 120, 80, 40, 12, 8, and 4 μM) in MeCN. Each solution was analyzed by HPLC, and a calibration curve was plotted using the peak areas from the standard concentrations. 20 μL of the 10 mM DMSO stock solution of each compound was partitioned between […] of buffer (200 mM HEPES, 150 mM NaCl, pH 7.4) and […] of 1-octanol. The mixture was mixed for 1 h. Each layer was injected separately onto a Shimadzu LC-20AB HPLC system (Solvent system: gradient from 15% MeCN/85% H2O to 95% MeCN/5% H2O (+0.1% formic acid) over 13 min; Column, Shimadzu C18, […], 50×4.6 mm; UV, 254 nm). The equilibrium solubility in the buffer layer and the 1-octanol layer of test compounds was determined by quantifying the concentration of test solutions against the calibration curve. Experiments were run in triplicate, and results were tabulated and reported as mean. […] Thus, including an electron withdrawing group at position R^4 results in improved pharmacokinetics, such as an improved ability to cross cell membranes.

Kelch domain of KEAP1 = Kelch domain of KEAP1 (Homo sapiens (Human), UniProt Q14145); test: Fluorescence anisotropy assay of KEAP1-NRF2 interaction inhibition; type: binding; settings: for binding affinity (in words): qualitative statement on the fluorescence anisotropy results
Protocol: The IC50 of the compounds for inhibiting the interaction of a fluorescent NRF2 peptide and the Kelch domain of KEAP1 was determined using fluorescence anisotropy. See Inoyama et al., J. Biomol.
Test compounds' ability to inhibit the KEAP1-NRF2 interaction were assayed using the Kelch domain of KEAP1 and a fluorescein-labeled 9-mer peptide containing the ETGE motif of the Neh2 domain of NRF2. The experiments were performed in triplicate, and sigmoidal concentration-response curves were fitted to the data using Graphpad Prism 6.1 software.

[2] = Microsomal stability study; type: in vitro ADME; settings: human liver microsomes in buffer, 20 min
Text: LC-MS grade acetonitrile (MeCN), methanol (MeOH), formic acid, and biology grade DMSO were purchased from Fisher Scientific (Pittsburgh, Pa.). LC-MS grade water was generated using a Barnstead Nanopure Diamond water system (Thermo Scientific, Pittsburgh, Pa.). All other reagents, if not specified, were purchased from Sigma-Aldrich (Saint Louis, Mo.). Pooled human liver microsomes and mouse liver microsomes were purchased from Sekisui XenoTech (Kansas City, Kans.). Preparation of Standard. The initial stock solutions of test compounds were prepared in DMSO at 10 mM, and then diluted with MeOH to 200 μM before use. All stock solutions were stored at −20° C. Liver microsomes were aliquoted upon arrival and stored at −80° C. Samples were analyzed on a Shimadzu 8040 triple-quadrupole mass spectrometer (Shimadzu, Addison, Ill.) equipped with electrospray ion source and Shimadzu Nexera XR UHPLC system. Mobile phase A contained water with 0.025% (v/v) FA, and mobile phase B consisted of MeCN with 0.1% (v/v) FA. Five microliters of sample was injected. Study compounds were eluted on a Kinetex C18 column (3.0×50 mm, 2.6 μm; Phenomenex, Torrance, Calif.) at 500 μL/min using a gradient program: mobile phase B started and maintained at 15% for 1 min, then increased to 95% in 4 min. Nebulizing gas flow and drying gas flow were set to 2 and 15 L/min. DL temperature, heat block temperature, and ion spray voltage were maintained at 300° C., 450° C. and 4500 V, respectively.

NRF2 = NRF2 stabilization by Western Blot in HaCaT keratinocytes; type: cell-based, human; settings: HaCaT cells, 10 μM compound, 6 h, relative to vehicle (DMSO) control
Protocol: (§1) Molecules that block the degradatior of NRF2 serve as NRF2 activators. This has the effect of stabilizing NRF2 protein levels and upregulating target gene levels, such as NQO1. […] CDDO is a positive control compound that activates NRF2 through an electrophilic mechanism. […] HaCat Cells were treated with 10 μM compound unless otherwise indicated.
(§2) Spontaneously immortalized human keratinocytes (HaCaT cell line) were grown in Dubecco's modified Eagle's medium (DMEM) with 10% fetal bovine serum and 1% antibiotics. […] Cells were lysed in a 20 mM Tris (pH 7.5) buffer containing 150 mM NaCl, 1 mM EDTA, 1 mM EGTA, 1% Triton X-100, 2.5 mM sodium pyrophosphate, 1 mM Na3VO4, 5 mM β-glycerophosphate, and 1 μg/mL leupeptin. Equal amount of protein (˜40 μg) was separated on a 10% SDS-PAGE, blotted on the membrane, and probed with antiNRF2, or anti-NQO1 antibody. […] CDDO is a positive control compound that activates NRF2 through an electrophilic mechanism.

[3] = test system: NADPH quinone oxidoreductase (NQO1); test: NRF2 target gene activation: NQO1 protein levels by Western Blot in HaCaT keratinocytes; type: cell-based, human; settings: HaCaT cells, 10 μM compound, 6 h
Protocol: as §1, §2

[4] = fluorescent NRF2 peptide and Kelch domain of KEAP1, fluorescence anisotropy

Sequence of Kelch domain of KEAP1 (Q14145 321-609): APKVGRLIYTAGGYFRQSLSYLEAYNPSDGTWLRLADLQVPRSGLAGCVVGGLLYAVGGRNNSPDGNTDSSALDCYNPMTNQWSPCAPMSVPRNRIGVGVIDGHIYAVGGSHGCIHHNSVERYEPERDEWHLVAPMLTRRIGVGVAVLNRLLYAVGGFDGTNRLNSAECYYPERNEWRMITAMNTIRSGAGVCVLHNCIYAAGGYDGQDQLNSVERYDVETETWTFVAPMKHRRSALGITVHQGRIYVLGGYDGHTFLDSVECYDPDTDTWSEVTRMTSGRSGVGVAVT

Structure (SMILES): COc1ccc(S(=O)(=O)N(CC(=O)O)c2cnc(N(CC(=O)O)S(=O)(=O)c3ccc(OC)cc3)c3ccccc23)cc1 [Compound A1, 2,2′-(isoquinoline-1,4-diylbis(((4-methoxyphenyl)sulfonyl)azanediyl))diacetic acid]
- logD [1]: −1.5

Structure (SMILES): COc1ccc(S(=O)(=O)Nc2ncc(N(CC(=O)O)S(=O)(=O)c3ccc(OC)cc3)c3ccccc23)cc1 [Compound A2, N-(1-((4-methoxyphenyl)sulfonamido)isoquinolin-4-yl)-N-((4-methoxyphenyl)sulfonyl)glycine]
- IC50 (Kelch domain of KEAP1; [4]): 1.2 µM
- logD at 1 h [1]: -0.5

Structure (SMILES): COc1ccc(S(=O)(=O)N(C)c2ncc(N(CC(=O)O)S(=O)(=O)c3ccc(OC)cc3)c3ccccc23)cc1 [Compound A3, N-(1-((4-methoxy-N-methylphenyl)sulfonamido)isoquinolin-4-yl)-N-((4-methoxyphenyl)sulfonyl)glycine]
- IC50 (Kelch domain of KEAP1; [4]): 2 µM
- metabolic stability [2]: significantly more metabolically stable
- logD at 1 h [1]: 0

Structure (SMILES): O=C(O)CN(c1cnc(N(CC(=O)O)S(=O)(=O)c2ccc(O)cc2)c2ccccc12)S(=O)(=O)c1ccc(O)cc1 [Compound A4, 2,2′-(isoquinoline-1,4-diylbis(((4-hydroxyphenyl)sulfonyl)azanediyl))diacetic acid]
- IC50 (Kelch domain of KEAP1; [4]): 0.53 µM
- binding affinity (in words) (Kelch domain of KEAP1): high binding affinities

Structure (SMILES): O=C(O)CN(c1cnc(N(CC(=O)O)S(=O)(=O)c2ccc(F)cc2)c2ccccc12)S(=O)(=O)c1ccc(F)cc1 [Compound A5, 2,2′-(isoquinoline-1,4-diylbis(((4-fluorophenyl)sulfonyl)azanediyl))diacetic acid]
- IC50 (Kelch domain of KEAP1; [4]): 0.35 µM
- binding affinity (in words) (Kelch domain of KEAP1): high binding affinities

Structure (SMILES): COc1ccc(S(=O)(=O)Nc2cnc(N(CC(=O)O)S(=O)(=O)c3ccc(OC)cc3)c3ccccc23)cc1 [Compound A6, N-(4-((4-methoxyphenyl)sulfonamido)isoquinolin-1-yl)-N-((4-methoxyphenyl)sulfonyl)glycine]
- IC50 (Kelch domain of KEAP1; [4]): 0.212 µM
- stabilization of NRF2 expression (NRF2): stabilize NRF2 expression
- levels of NQO1 [3]: increase the levels of NQO1
- metabolic stability [2]: degraded substantially
- logD [1]: −1.6

Structure (SMILES): COc1ccc(S(=O)(=O)N(C)c2cnc(N(CC(=O)O)S(=O)(=O)c3ccc(OC)cc3)c3ccccc23)cc1 [Compound A8, N-(4-((4-methoxy-N-methylphenyl)sulfonamido)isoquinolin-1-yl)-N-((4-methoxyphenyl)sulfonyl)glycine]
- IC50 (Kelch domain of KEAP1; [4]): 1.1 µM
- binding affinity (in words) (Kelch domain of KEAP1): significantly diminished the binding affinity
- metabolic stability [2]: degraded substantially
- logD at 1 h [1]: 0

Structure (SMILES): [2H]C([2H])([2H])N(c1cnc(N(CC(=O)O)S(=O)(=O)c2ccc(OC)cc2)c2ccccc12)S(=O)(=O)c1ccc(OC)cc1 [Compound A9, N-(4-((4-methoxy-N-(methyl-d3)phenyl)sulfonamido)isoquinolin-1-yl)-N-((4-methoxyphenyl)sulfonyl)glycine]
- IC50 (Kelch domain of KEAP1; [4]): 1.23 µM
- binding affinity (in words) (Kelch domain of KEAP1): significantly diminished the binding affinity
- metabolic stability [2]: degraded substantially

Structure (SMILES): COc1ccc(S(=O)(=O)N(CC(F)(F)F)c2cnc(N(CC(=O)O)S(=O)(=O)c3ccc(OC)cc3)c3ccccc23)cc1 [Compound B0, N-(4-((4-methoxy-N-(2,2,2-trifluoroethyl)phenyl)sulfonamido)isoquinolin-1-yl)-N-((4-methoxyphenyl)sulfonyl)glycine]
- logD at 1 h [1]: 0.5

Structure (SMILES): COc1ccc(S(=O)(=O)Nc2cnc(N3CCC[C@@H]3C(=O)O)c3ccccc23)cc1 [Compound C5, (4-((4-methoxyphenyl)sulfonamido)isoquinolin-1-yl)-D-proline]
- IC50 (Kelch domain of KEAP1; Table C, unit inferred): > 25 µM
- IC50 (Kelch domain of KEAP1; [4]): > 25 µM

Structure (SMILES): COc1ccc(S(=O)(=O)Nc2cnc(N3CCC[C@H]3C(=O)O)c3ccccc23)cc1 [Compound C6, (4-((4-methoxyphenyl)sulfonamido)isoquinolin-1-yl)-L-proline]
- IC50 (Kelch domain of KEAP1; Table C, unit inferred): 5 µM
- IC50 (Kelch domain of KEAP1; [4]): 5 µM

Structure (SMILES): COc1ccc(S(=O)(=O)Nc2cnc(N3CC[C@@H](c4ccccc4)C3)c3ccccc23)cc1 [Compound C7, (S)-4-methoxy-N-(1-(3-phenylpyrrolidin-1-yl)isoquinolin-4-yl)benzenesulfonamide]
- IC50 (Kelch domain of KEAP1; Table C, unit inferred): > 25 µM
- IC50 (Kelch domain of KEAP1; [4]): > 25 µM

Structure (SMILES): COc1ccc(S(=O)(=O)Nc2cnc(N3CC[C@H](c4ccccc4)C3)c3ccccc23)cc1 [Compound C8, (R)-4-methoxy-N-(1-(3-phenylpyrrolidin-1-yl)isoquinolin-4-yl)benzenesulfonamide]
- IC50 (Kelch domain of KEAP1; Table C, unit inferred): > 25 µM
- IC50 (Kelch domain of KEAP1; [4]): > 25 µM

Structure (SMILES): COc1ccc(S(=O)(=O)Nc2ccc(/C=C/C(=O)O)c3ccccc23)cc1 [Compound C9, (E)-3-(4-((4-methoxyphenyl)sulfonamido)naphthalen-1-yl)acrylic acid]
- IC50 (Kelch domain of KEAP1; Table C, unit inferred): 9.3 µM
- IC50 (Kelch domain of KEAP1; [4]): 9.3 µM

Structure (SMILES): COc1ccc(S(=O)(=O)Nc2ccc(CCC(=O)O)c3ccccc23)cc1 [Compound C11, 3-(4-((4-methoxyphenyl)sulfonamido)naphthalen-1-yl)propanoic acid]
- IC50 (Kelch domain of KEAP1; Table C, unit inferred): 6 µM
- IC50 (Kelch domain of KEAP1; [4]): 6 µM

Structure (SMILES): COc1ccc(CCc2ccc(NS(=O)(=O)c3ccc(OC)cc3)c3ccccc23)cc1 [Compound C13, 4-methoxy-N-(4-(4-methoxyphenethyl)naphthalen-1-yl)benzenesulfonamide]
- IC50 (Kelch domain of KEAP1; Table C, unit inferred): > 25 µM
- IC50 (Kelch domain of KEAP1; [4]): > 25 µM
